Structures can show the parent of a compound that is named as a salt. Where two headings read alike, the source gives them in different places.
Experiments:
Assay in all cases: In Vitro Anti-Bacterial Activity Test (MIC, agar dilution)
Type in all cases: cell-based
Salmonella typhimurium = details: Salmonella enterica; Salmonella typhimurium; Muller-Hinton agar, 37° C., 18 hours; read-out: MIC
Method in brief: (§1)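 Compounds were diluted into Muller-Hinton agar plates, which were inoculated with 10^7 C.F.U./ml of each strain. Plates were kept at 37° C. for 18 hours before growth was read.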

Klebsiella oxytoca 1082E = details: Klebsiella oxytoca 1082E; Muller-Hinton agar, 37° C., 18 hours; read-out: MIC
Method in brief: as §1

[1] = system: Klebsiella aerogenes 1522E; details: Klebsiella aerogenes, 1522E, 18 h, Klebsiella aerogenes 1522E; Muller-Hinton agar, 37° C., 18 hours; read-out: MIC
Method in brief: as §1

[2] = system: Pseudomonas aeruginosa 1771; details: Pseudomonas aeruginosa 1771; Muller-Hinton agar, 37° C., 18 hours; read-out: MIC
Method in brief: as §1

[3] = system: Pseudomonas aeruginosa 1592E; details: Muller-Hinton agar, 37° C., 18 hours, read-out: MIC
Method in brief: as §1

Escherichia coli DC0 = details: Muller-Hinton agar, 37° C., 18 hours, read-out: MIC
Method in brief: as §1

Enterobacter cloacae P99 = details: Enterobacter cloacae, P99, 18 h
Method in brief: as §1

[4] = system: Streptococcus pyogenes 77A
Method in brief: as §1

Escherichia coli 078 = system: Escherichia coli 078
Method in brief: as §1

Escherichia coli TEM = details: Escherichia coli, 18 h, Muller-Hinton agar, 37° C.
Method in brief: as §1

[5] = system: Pseudomonas aeruginosa 1771M; details: Pseudomonas aeruginosa, 1771M, 18 h, Muller-Hinton agar, 37° C.
Method in brief: as §1

[6] = system: Enterobacter cloacae 1321E
Method in brief: as §1

[7] = system: Staphylococcus aureus 285; details: Staphylococcus aureus, 285, 18 h, Staphylococcus aureus 285; Muller-Hinton agar, 37° C., 18 hours; read-out: MIC
Method in brief: as §1

Escherichia coli 1507E = details: Escherichia coli, 1507E, 18 h, Muller-Hinton agar, 37° C.
Method in brief: as §1

[8] = system: Pseudomonas aeruginosa 9027; details: Muller-Hinton agar, 37° C., 18 hours, read-out: MIC
Method in brief: as §1

Escherichia coli DC2 = details: Escherichia coli, DC2, 18 h
Method in brief: as §1

[9] = system: Streptococcus pyogenes 308A; details: Muller-Hinton agar, 37° C., 18 hours, read-out: MIC
Method in brief: as §1

[10] = system: Staphylococcus aureus 503; details: Staphylococcus aureus 503; Muller-Hinton agar, 37° C., 18 hours; read-out: MIC
Method in brief: as §1

[11] = system: Staphylococcus aureus SG511; details: Staphylococcus aureus SG511; Muller-Hinton agar, 37° C., 18 hours; read-out: MIC
Method in brief: as §1

[12] = system: Streptococcus faecium MD8b; details: Enterococcus faecium, Muller-Hinton agar, 37° C., 18 hours, read-out: MIC
Method in brief: as §1

[13] = Streptococcus pyogenes, 77A, 18 h
[14] = Enterobacter cloacae 1321E, Muller-Hinton agar, 37° C., 18 hours, read-out: MIC
[15] = Streptococcus pyogenes 77A, Muller-Hinton agar, 37° C., 18 hours, read-out: MIC
[16] = Escherichia coli 078, Muller-Hinton agar, 37° C., 18 hours, read-out: MIC
[17] = Enterobacter cloacae, 1321E, 18 h

CCOC(=O)C(C(=O)OCC)C(=O)c1cn(C2CC2)c2c(OC)c(N3CCC(NC)C3)c(F)cc2c1=O (stereo not shown) [Example 60, 1-cyclopropyl-6-fluoro-8-methoxy-7-(3-methylaminopyrrolidin-1-yl)-3-(2,2-diethoxycarbonylacetyl)-1,4-dihydro-4-oxoquinoline hydrochloride]
MIC (Salmonella typhimurium): 0.098 µg/mL
MIC (Klebsiella oxytoca 1082E): 13 ng/mL
MIC [1]: 0.195 µg/mL
MIC [2]: 1.56 µg/mL
MIC [3]: 1.56 µg/mL
MIC (Escherichia coli DC0): 0.781 µg/mL
MIC (Enterobacter cloacae P99): 0.098 µg/mL
MIC [4, 13]: 0.781 µg/mL
MIC (Escherichia coli 078; Escherichia coli, 078, 18 h): 0.098 µg/mL
MIC (Escherichia coli TEM): 98 ng/mL
MIC [5]: 0.781 µg/mL
MIC [6, 14]: 0.098 µg/mL
MIC [7]: 0.195 µg/mL
MIC (Escherichia coli 1507E): 195 ng/mL
MIC [8]: 1.56 µg/mL
MIC (Escherichia coli DC2): 0.098 µg/mL
MIC [9]: 1.56 µg/mL
MIC [10]: 0.098 µg/mL
MIC [11]: 0.195 µg/mL
MIC [12]: 0.781 µg/mL

CN[C@@H]1CCN(c2c(F)cc3c(=O)c(C(=O)C[N+](=O)[O-])cn(C4CC4)c3c2Cl)C1 [Example 61, 1-cyclopropyl-6-fluoro-8-chloro-7-(3-3R-methylaminopyrrolidin-1-yl)-3-(2-nitroacetyl)-1,4-dihydro-4-oxoquinoline hydrochloride]
MIC (Salmonella typhimurium): 0.004 µg/mL
MIC (Klebsiella oxytoca 1082E): 4 ng/mL
MIC [1]: 0.013 µg/mL
MIC [2]: 0.195 µg/mL
MIC [3]: 0.195 µg/mL
MIC (Escherichia coli DC0): 0.049 µg/mL
MIC (Enterobacter cloacae P99): 0.007 µg/mL
MIC [4, 15]: 0.098 µg/mL
MIC (Escherichia coli 078; [16]): < 0.002 µg/mL
MIC (Escherichia coli TEM): 7 ng/mL
MIC [5]: 0.098 µg/mL
MIC [6, 17]: 0.007 µg/mL
MIC [7]: 0.025 µg/mL
MIC (Escherichia coli 1507E): 7 ng/mL
MIC [8]: 0.195 µg/mL
MIC (Escherichia coli DC2): 0.013 µg/mL
MIC [9]: 0.391 µg/mL
MIC [10]: 0.025 µg/mL
MIC [11]: 0.013 µg/mL
MIC [12]: 0.098 µg/mL

CN[C@H]1CCN(c2c(F)cc3c(=O)c(C(=O)C[N+](=O)[O-])cn(C4CC4)c3c2Cl)C1 [Example 62, 1-cyclopropyl-6-fluoro-8-chloro-7-(3-3S-methylaminopyrrolidin-1-yl)-3-(2-nitroacetyl)-1,4-dihydro-4-oxoquinoline hydrochloride]
MIC (Salmonella typhimurium): 0.025 µg/mL
MIC (Klebsiella oxytoca 1082E): < 2 ng/mL
MIC [1]: 0.007 µg/mL
MIC [2]: 0.098 µg/mL
MIC [3]: 0.098 µg/mL
MIC (Escherichia coli DC0): 0.025 µg/mL
MIC (Enterobacter cloacae P99): 0.007 µg/mL
MIC [4, 15]: 0.049 µg/mL
MIC (Escherichia coli 078; [16]): < 0.002 µg/mL
MIC (Escherichia coli TEM): 7 ng/mL
MIC [5]: 0.098 µg/mL
MIC [6, 17]: 0.007 µg/mL
MIC [7]: 0.025 µg/mL
MIC (Escherichia coli 1507E): 7 ng/mL
MIC [8]: 0.195 µg/mL
MIC (Escherichia coli DC2): 0.013 µg/mL
MIC [9]: 0.098 µg/mL
MIC [10]: 0.013 µg/mL
MIC [11]: 0.013 µg/mL
MIC [12]: 0.049 µg/mL

CNC1CCN(c2c(F)cc3c(=O)c(C(=O)C[N+](=O)[O-])cn(C4CC4)c3c2Cl)C1 (stereo not shown) [Example 63, 1-cyclopropyl-6-fluoro-8-chloro-7-(3-methylaminopyrrolidin-1-yl)-3-(2-nitroacetyl)-1,4-dihydro-4-oxoquinoline hydrochloride]
MIC (Salmonella typhimurium): 0.004 µg/mL
MIC (Klebsiella oxytoca 1082E): 7 ng/mL
MIC [1]: 0.013 µg/mL
MIC [2]: 0.195 µg/mL
MIC [3]: 0.195 µg/mL
MIC (Escherichia coli DC0): 0.098 µg/mL
MIC (Enterobacter cloacae P99): 0.013 µg/mL
MIC [4, 15]: 0.098 µg/mL
MIC (Escherichia coli 078; [16]): < 0.002 µg/mL
MIC (Escherichia coli TEM): 7 ng/mL
MIC [5]: 0.049 µg/mL
MIC [6, 14]: 0.013 µg/mL
MIC [7]: 0.049 µg/mL
MIC (Escherichia coli 1507E): 7 ng/mL
MIC [8]: 0.391 µg/mL
MIC (Escherichia coli DC2): 0.025 µg/mL
MIC [9]: 0.391 µg/mL
MIC [10]: 0.049 µg/mL
MIC [11]: 0.025 µg/mL
MIC [12]: 0.098 µg/mL

CN[C@@H]1CCN(c2c(F)cc3c(=O)c(C(=O)C[N+](=O)[O-])cn(C4CC4)c3c2OC)C1 [Example 64, 1-cyclopropyl-6-fluoro-8-methoxy-7-(3-3R-methylaminopyrrolidin-1-yl)-3-(2-nitroacetyl)-1,4-dihydro-4-oxoquinoline hydrochloride]
MIC (Salmonella typhimurium): 0.013 µg/mL
MIC (Klebsiella oxytoca 1082E): 7 ng/mL
MIC [1]: 0.098 µg/mL
MIC [2]: 0.781 µg/mL
MIC [3]: 1.56 µg/mL
MIC (Escherichia coli DC0): 0.391 µg/mL
MIC (Enterobacter cloacae P99): 0.049 µg/mL
MIC [4, 13]: 0.781 µg/mL
MIC (Escherichia coli 078; Escherichia coli, 078, 18 h): 0.049 µg/mL
MIC (Escherichia coli TEM): 49 ng/mL
MIC [5]: 0.781 µg/mL
MIC [6, 14]: 0.049 µg/mL
MIC [7]: 0.098 µg/mL
MIC (Escherichia coli 1507E): 98 ng/mL
MIC [8]: 1.56 µg/mL
MIC (Escherichia coli DC2): 0.049 µg/mL
MIC [9]: 0.781 µg/mL
MIC [10]: 0.098 µg/mL
MIC [11]: 0.391 µg/mL
MIC [12]: 0.391 µg/mL

From patent US5409933A, “Quinoline derivatives and processes for preparing the same” (priority 1993, dated 1995)
